Here are results for ten compounds from ChEMBL document CHEMBL2406991, “A novel series of metabotropic glutamate receptor 5 negative allosteric modulators based on a 4,5,6,7-tetrahydropyrazolo[1,5-a]pyridine core” (Bioorg Med Chem Lett, 2013).

SMILES strings stand for the structures. ≈ marks a conversion by molar mass, not a printed value. Calls of active or inactive are those of the source.

One data set deals with Cytochrome P450 3A4 (Homo sapiens, UniProt P08684). In words: Inhibition of CYP3A4 (unknown origin). Type of data set: ADME.
Cytochrome P450 3A4, sequence (P08684 whole entry): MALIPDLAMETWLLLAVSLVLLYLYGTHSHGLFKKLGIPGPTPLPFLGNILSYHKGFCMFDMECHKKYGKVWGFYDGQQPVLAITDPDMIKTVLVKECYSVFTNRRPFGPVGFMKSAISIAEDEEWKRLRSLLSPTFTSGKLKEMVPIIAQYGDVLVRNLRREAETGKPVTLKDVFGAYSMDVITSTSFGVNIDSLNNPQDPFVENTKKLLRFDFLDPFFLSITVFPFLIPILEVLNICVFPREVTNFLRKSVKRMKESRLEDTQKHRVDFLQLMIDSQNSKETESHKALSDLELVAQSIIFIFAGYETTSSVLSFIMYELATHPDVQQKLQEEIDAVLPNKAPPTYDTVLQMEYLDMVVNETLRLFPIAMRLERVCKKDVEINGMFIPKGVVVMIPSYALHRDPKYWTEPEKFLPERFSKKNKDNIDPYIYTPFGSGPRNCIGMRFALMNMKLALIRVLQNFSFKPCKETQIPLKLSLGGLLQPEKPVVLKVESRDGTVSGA
For another data set, the target named is Cytochrome P450 2C9 (Homo sapiens, UniProt P11712). The data set can be described thus: Inhibition of CYP2C9 (unknown origin). Type of data set: ADME.
Cytochrome P450 2C9, sequence (P11712 whole entry): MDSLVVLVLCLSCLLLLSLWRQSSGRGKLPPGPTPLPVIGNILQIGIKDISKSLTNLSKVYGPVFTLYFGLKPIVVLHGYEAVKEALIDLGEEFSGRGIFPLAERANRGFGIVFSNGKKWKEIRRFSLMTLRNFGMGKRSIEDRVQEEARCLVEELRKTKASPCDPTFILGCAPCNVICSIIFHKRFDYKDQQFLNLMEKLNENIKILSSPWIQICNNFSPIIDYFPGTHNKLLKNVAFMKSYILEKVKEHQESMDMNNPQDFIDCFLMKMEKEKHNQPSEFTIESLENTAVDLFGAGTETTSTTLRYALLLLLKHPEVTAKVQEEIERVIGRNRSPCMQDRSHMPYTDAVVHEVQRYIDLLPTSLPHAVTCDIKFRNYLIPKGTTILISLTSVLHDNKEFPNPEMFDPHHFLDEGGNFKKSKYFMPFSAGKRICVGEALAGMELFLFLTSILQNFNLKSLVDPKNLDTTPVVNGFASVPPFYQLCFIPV
In a further data set the target is Cytochrome P450 2D6 (Homo sapiens, UniProt P10635). In words: Inhibition of CYP2D6 (unknown origin). Type of data set: ADME.
Cytochrome P450 2D6, sequence (P10635 whole entry): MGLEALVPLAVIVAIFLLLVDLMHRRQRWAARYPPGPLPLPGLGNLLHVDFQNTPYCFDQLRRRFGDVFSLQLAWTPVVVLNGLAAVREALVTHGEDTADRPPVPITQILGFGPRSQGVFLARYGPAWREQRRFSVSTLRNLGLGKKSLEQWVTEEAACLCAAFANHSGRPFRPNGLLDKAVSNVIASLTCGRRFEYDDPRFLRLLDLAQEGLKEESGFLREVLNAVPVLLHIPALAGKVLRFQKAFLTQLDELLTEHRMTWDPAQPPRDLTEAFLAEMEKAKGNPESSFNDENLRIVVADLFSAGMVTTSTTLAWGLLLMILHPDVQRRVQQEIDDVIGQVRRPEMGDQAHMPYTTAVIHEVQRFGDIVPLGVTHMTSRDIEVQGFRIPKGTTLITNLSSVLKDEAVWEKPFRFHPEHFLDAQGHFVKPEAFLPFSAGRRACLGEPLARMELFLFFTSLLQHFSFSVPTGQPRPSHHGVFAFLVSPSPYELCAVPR
Data set [1] in a line: Intrinsic clearance in human microsomes measured per mg of protein. The data set is classed as ADME, Microsome.
Data set [2] concerns Plasma. The data set can be described thus: Metabolic stability in rat plasma matrix. The data set is classed as ADME, cell-free.
For data set [3], the target named is Metabotropic glutamate receptor 5 (Rattus norvegicus) (UniProt P31424). In words: Displacement of [3H]MPEP from mGluR5 receptor in Sprague-Dawley rat cortical homogenate after 1 hr by liquid scintillation spectrometric analysis. For orientation: Displacement assays read how much labelled ligand stays bound in the presence of the test substance.
Metabotropic glutamate receptor 5 (Rattus norvegicus), sequence (P31424 21-1203 limits assumed): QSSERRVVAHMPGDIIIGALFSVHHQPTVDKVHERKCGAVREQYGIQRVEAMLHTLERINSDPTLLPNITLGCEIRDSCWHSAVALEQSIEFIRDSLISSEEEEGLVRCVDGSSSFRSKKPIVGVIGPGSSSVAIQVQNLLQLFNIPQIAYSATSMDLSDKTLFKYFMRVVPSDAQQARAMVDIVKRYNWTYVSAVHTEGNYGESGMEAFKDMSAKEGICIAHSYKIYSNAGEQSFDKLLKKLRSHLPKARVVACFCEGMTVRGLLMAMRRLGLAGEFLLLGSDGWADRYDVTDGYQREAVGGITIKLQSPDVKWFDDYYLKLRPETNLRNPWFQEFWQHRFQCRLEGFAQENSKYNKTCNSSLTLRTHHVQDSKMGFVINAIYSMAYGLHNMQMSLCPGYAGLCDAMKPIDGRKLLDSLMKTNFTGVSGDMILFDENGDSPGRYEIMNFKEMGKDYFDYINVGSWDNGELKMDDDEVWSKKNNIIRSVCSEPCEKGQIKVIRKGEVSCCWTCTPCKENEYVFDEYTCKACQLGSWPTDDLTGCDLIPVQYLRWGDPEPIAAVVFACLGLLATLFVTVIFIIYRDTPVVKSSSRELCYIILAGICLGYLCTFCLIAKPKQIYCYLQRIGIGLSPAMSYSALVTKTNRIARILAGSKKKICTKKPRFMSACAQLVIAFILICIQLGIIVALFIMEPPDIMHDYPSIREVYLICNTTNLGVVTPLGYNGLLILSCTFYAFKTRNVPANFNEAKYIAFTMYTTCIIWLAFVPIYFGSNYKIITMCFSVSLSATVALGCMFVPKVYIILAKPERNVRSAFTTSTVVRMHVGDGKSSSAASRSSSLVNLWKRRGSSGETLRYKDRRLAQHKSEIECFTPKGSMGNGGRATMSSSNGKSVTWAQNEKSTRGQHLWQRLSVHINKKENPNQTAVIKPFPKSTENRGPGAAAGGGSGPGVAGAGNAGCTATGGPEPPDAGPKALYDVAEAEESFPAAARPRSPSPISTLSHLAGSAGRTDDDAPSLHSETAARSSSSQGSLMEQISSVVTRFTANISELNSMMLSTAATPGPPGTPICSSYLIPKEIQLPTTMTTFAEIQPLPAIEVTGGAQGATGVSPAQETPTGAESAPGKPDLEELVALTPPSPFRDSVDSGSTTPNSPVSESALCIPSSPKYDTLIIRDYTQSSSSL
Data set [4] shares this target. The data set can be described thus: Inhibition of rat mGluR5 receptor expressed in HEK293 cells at 30 uM relative to control. The data set is classed as cell-based.
The target of data set [5] is Metabotropic glutamate receptor 5 (Rattus norvegicus, UniProt P31424). In words: Negative allosteric modulation of rat mGluR5 receptor expressed in HEK293 cells assessed as intracellular calcium flux after 170 seconds by FLIPR assay. Type of data set: functional, cell-based. The conditions noted are these: read-out: IC50.
Metabotropic glutamate receptor 5, sequence (P31424 whole entry): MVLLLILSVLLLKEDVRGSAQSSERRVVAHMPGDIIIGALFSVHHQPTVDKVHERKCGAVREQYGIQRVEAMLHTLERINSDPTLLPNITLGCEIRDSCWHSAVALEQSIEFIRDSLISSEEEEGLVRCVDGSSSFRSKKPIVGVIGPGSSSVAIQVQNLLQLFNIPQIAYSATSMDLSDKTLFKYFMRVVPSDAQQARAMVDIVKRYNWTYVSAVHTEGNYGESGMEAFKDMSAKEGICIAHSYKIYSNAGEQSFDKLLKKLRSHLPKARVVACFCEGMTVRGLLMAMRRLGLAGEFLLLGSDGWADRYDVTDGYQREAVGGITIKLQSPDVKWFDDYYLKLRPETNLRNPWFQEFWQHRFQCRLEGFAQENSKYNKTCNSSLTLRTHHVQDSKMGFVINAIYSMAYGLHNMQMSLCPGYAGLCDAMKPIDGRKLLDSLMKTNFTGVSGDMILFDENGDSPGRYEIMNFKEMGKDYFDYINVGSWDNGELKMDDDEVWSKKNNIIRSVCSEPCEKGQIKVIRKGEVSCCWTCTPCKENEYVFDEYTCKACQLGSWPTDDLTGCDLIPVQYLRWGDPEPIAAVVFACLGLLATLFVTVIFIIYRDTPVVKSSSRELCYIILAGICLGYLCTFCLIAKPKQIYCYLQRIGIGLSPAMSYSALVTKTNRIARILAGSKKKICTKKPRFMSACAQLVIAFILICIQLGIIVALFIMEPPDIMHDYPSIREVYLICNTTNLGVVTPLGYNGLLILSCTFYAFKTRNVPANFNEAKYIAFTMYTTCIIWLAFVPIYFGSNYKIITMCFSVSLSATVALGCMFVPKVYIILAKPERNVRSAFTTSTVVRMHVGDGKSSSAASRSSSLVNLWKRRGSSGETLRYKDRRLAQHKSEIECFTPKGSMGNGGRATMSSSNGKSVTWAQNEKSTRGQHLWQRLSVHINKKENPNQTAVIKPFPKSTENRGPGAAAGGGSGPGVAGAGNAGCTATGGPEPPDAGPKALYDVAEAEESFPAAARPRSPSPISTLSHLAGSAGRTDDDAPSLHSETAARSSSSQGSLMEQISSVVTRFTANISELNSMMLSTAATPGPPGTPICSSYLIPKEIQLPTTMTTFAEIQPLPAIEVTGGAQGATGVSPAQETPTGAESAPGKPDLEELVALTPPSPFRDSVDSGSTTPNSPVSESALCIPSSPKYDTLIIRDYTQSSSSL
The next data set addresses T1, Cytochrome P450 1A2 (Homo sapiens, UniProt P05177).
T1 sequence (P05177 whole entry): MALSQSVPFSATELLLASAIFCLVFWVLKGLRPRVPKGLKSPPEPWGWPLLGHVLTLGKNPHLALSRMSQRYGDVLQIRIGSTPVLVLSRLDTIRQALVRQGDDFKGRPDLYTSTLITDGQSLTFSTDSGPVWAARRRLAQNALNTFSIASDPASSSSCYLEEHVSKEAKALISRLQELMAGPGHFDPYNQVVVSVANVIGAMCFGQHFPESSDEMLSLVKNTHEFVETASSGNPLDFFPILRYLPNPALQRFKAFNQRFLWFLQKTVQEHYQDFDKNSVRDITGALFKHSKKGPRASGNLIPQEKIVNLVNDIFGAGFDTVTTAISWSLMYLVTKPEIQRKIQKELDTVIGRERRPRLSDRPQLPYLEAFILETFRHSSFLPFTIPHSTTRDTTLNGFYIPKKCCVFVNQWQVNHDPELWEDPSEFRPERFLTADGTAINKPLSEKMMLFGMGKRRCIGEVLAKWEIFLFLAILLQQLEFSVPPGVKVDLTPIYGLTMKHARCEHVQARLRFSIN
The data set can be described thus: Inhibition of CYP1A2 (unknown origin). Type of data set: ADME.

Data set [6] deals with Metabotropic glutamate receptor 5 (Rattus norvegicus) (UniProt P31424). The data set can be described thus: Partial negative allosteric modulation of rat mGluR5 receptor expressed in HEK293 cells assessed as intracellular calcium flux after 170 seconds by FLIPR assay relative to control. The data set is classed as functional, cell-based.
Data set [7] is described as follows: Kinetic solubility of the compound in DMSO at pH 7.4. Type of data set: physicochemical. The conditions noted are these: read-out: Kinetic_solubility.
Data set [8] can be described thus: Kinetic solubility of the compound in DMSO at pH 1. Type of data set: physicochemical. The note with it: read-out: Kinetic_solubility.
The nature of data set [9]: Intrinsic clearance in rat microsomes measured per mg of protein. Type of data set: ADME, Microsome.
The subject of data set [10] is Plasma. In words: Terminal plasma concentration in Sprague-Dawley rat at 30 mg/kg, po measured during second phase of formalin test. The data set is classed as ADME, organism-based. The note with it: in vivo. Also noted: dose 30 mg/kg, route oral.
In data set [11] the test system is Plasma. In words: Terminal plasma concentration in Sprague-Dawley rat at 10 mg/kg, po measured during second phase of formalin test. The conditions noted are these: in vivo. Set-up: dose 10 mg/kg, route oral. Type of data set: ADME, organism-based.
Data set [12] has as its system Plasma. In words: Terminal plasma concentration in Sprague-Dawley rat at 3 mg/kg, po measured during second phase of formalin test. Set-up: dose 3 mg/kg, route oral. The note with it: in vivo. The data set is classed as ADME, organism-based.
For data set [13], the system named is Plasma. The data set can be described thus: Terminal plasma concentration in Sprague-Dawley rat at 1 mg/kg, po measured during second phase of formalin test. The data set is classed as ADME, organism-based. Set-up: dose 1 mg/kg, route oral. The conditions noted are these: in vivo.
Data set [14] concerns Rattus norvegicus. In words: Antinociceptive activity in Sprague-Dawley rat assessed as reduction in formalin-induced nocifensive behavior at 1 to 30 mg/kg, po administered 30 mins prior to formalin-challenge measured during first phase of test. The data set is classed as functional, organism-based.
The test system of data set [15] is Rattus norvegicus. The data set can be described thus: Antinociceptive activity in Sprague-Dawley rat assessed as reduction in formalin-induced nocifensive behavior at 30 mg/kg, po administered 30 mins prior to formalin-challenge measured during second phase of test. The data set is classed as functional, organism-based. Set-up: dose 30 mg/kg.
The test system of data set [16] is Rattus norvegicus. In words: Antinociceptive activity in po dosed Sprague-Dawley rat assessed as reduction in formalin-induced nocifensive behavior administered 30 mins prior to formalin-challenge measured during second phase of test. The data set is classed as functional, organism-based.
A short description of data set [17]: Fraction unbound in rat plasma. The data set is classed as ADME, cell-free.
The subject of data set [18] is Plasma. In words: Drug uptake in rat CSF assessed as ratio of CSF to plasma at 30 mg/kg, sc relative to control. Type of data set: ADME, organism-based. Set-up: dose 30 mg/kg, route subcutaneous. The conditions noted are these: in vivo.
A short description of data set [19]: Cmax in rat plasma at 30 mg/kg, sc. The data set is classed as ADME, organism-based. Set-up: dose 30 mg/kg, route subcutaneous.
Data set [20] is described as follows: Cmax in rat CSF at 30 mg/kg, sc. Set-up: dose 30 mg/kg, route subcutaneous. Type of data set: ADME, organism-based, Cerebrospinal fluid.
Data set [21] in a line: Volume of distribution at steady state in rat at 3 mg/kg, iv. The data set is classed as ADME, organism-based. Also noted: dose 3 mg/kg, route intravenous. The note with it: in vivo, read-out: Vdss.
Data set [22] in a line: Half life in rat at 3 mg/kg, iv. Type of data set: ADME, organism-based. Set-up: dose 3 mg/kg, route intravenous. The note with it: in vivo.
The nature of data set [23]: Clearance in rat at 3 mg/kg, iv. Also noted: dose 3 mg/kg, route intravenous. Type of data set: ADME, organism-based. The conditions noted are these: in vivo.
In data set [24] the test system is Rattus norvegicus. The data set can be described thus: Antinociceptive activity in Sprague-Dawley rat assessed as reduction in formalin-induced nocifensive behavior at 10 mg/kg, po administered 30 mins prior to formalin-challenge. Type of data set: functional, organism-based. Also noted: dose 10 mg/kg.

On to `N#Cc1ccc(NC(=O)c2cc3n(n2)CCCC3)nc1`, for which the INH was greater than 10 µM at Cytochrome P450 3A4; greater than 10 µM on Cytochrome P450 2C9; greater than 10 µM at Cytochrome P450 2D6; 151 nM in data set [3]; greater than 10 µM on Cytochrome P450 1A2. In addition, the microsomal CLint in data set [1] worked out at 83 µL/min/mg. Also, the Stability result with Plasma [2] is on record as “Unstable”. This compound gave an inhibition in data set [4] greater than 99%. Further, in data set [5], the IC50 amounted to 90 nM.
As to `N#Cc1cccc(COc2cc3n(n2)CCCC3)c1`, in data set [6], the IC50 is 451 nM.
On to `N#Cc1ccc(CC(=O)c2cc3n(n2)CCCC3)nc1`, for which the INH is greater than 10 µM at Cytochrome P450 3A4; greater than 10 µM on Cytochrome P450 2C9; greater than 10 µM at Cytochrome P450 2D6; 139 nM in data set [3]; greater than 10 µM at Cytochrome P450 1A2. Further, the solubility kinetic worked out at 30 µg/mL (≈ 113 µM) in data set [7] and 80 µg/mL (≈ 300 µM) in data set [8]. Moreover, the intrinsic metabolic clearance (microsomal CLint) in data set [1] stood at 46 µL/min/mg; in data set [9], 108 µL/min/mg. In data set [4], the inhibition was greater than 99%. In data set [5], the IC50 worked out at 53 nM.
Take `N#Cc1ccc(CC(=O)c2nn3c(c2Cl)CCCC3)nc1`: the INH at Cytochrome P450 3A4, at Cytochrome P450 2C9, on Cytochrome P450 2D6 and on Cytochrome P450 1A2 was greater than 10 µM each time. The microsomal CLint worked out at 79 µL/min/mg in data set [1] and 649 µL/min/mg in [9]. The compound also yielded an inhibition in [4] greater than 99%. In addition, in [5], the IC50 came to 108 nM.
Turning to `N#Cc1ccc(COc2cc3n(n2)CCCC3)nc1`, the INH at Cytochrome P450 3A4 was greater than 10 µM; at Cytochrome P450 2C9 it was greater than 10 µM; on Cytochrome P450 2D6 it was greater than 10 µM; in data set [3] it was 299 nM; on Cytochrome P450 1A2 it was greater than 10 µM. The solubility kinetic in data set [7] came to 100 µg/mL (≈ 393 µM); in data set [8], 160 µg/mL (≈ 629 µM). In addition, the microsomal CLint in data set [1] was 85 µL/min/mg; in data set [9], 42 µL/min/mg. Also, the inhibition in data set [4] is greater than 99%. The IC50 in data set [5] was 316 nM. Further, the “Cp(T)” value in the data set on Plasma [10] was 501 ng/mL; with Plasma [11], 46 ng/mL; in the data set on Plasma [12], 5.3 ng/mL; in the data set on Plasma [13] it was 2.4 ng/mL. In addition, the outcome in the data set with Rattus norvegicus [14] was inactive. Moreover, in the data set with Rattus norvegicus [15], the outcome was Active. Also, in the data set on Rattus norvegicus [16], the Activity result is “Dose-dependent effect”. This compound yielded a fraction unbound in data set [17] of 0.32. Further, the Drug uptake in the data set on Plasma [18] is 14.4%. Further, the Cmax in data set [19] was 2900 ng/mL; in [20], 416 ng/mL. For the same compound, the Vd in data set [21] was 1.1 L/kg. For the same compound, the half-life in data set [22] was 12 min. Besides, the clearance in [23] was 72 mL/min/kg.
For `Clc1cccc(-c2cc3n(n2)CCCC3)c1`, the solubility kinetic in [7] was determined as 20 µg/mL (≈ 85.9 µM); in data set [8], 110 µg/mL (≈ 473 µM). For the same compound, the microsomal CLint in data set [1] was determined as 386 µL/min/mg; in data set [9], 384 µL/min/mg. The INH in data set [3] is 401 nM; on Cytochrome P450 1A2 it was less than 0.75 µM. The inhibition in data set [4] is greater than 99%. Further, the half-inhibitory concentration (IC50) in data set [5] amounted to 77 nM.
For `Cc1nc(C#Cc2cccnc2)cs1`, the result in the data set with Rattus norvegicus [24] was Active.
As to `c1ccc(-c2cc3n(n2)CCCC3)nc1`, the INH was greater than 10 µM on Cytochrome P450 3A4; greater than 10 µM on Cytochrome P450 2C9; greater than 10 µM at Cytochrome P450 2D6; 1180 nM in data set [3]; greater than 10 µM at Cytochrome P450 1A2. Besides, the solubility kinetic in [7] was found to be 180 µg/mL (≈ 903 µM); in data set [8], 170 µg/mL (≈ 853 µM). Also, the microsomal CLint is 97 µL/min/mg in [1] and 118 µL/min/mg in [9]. Besides, the inhibition in [4] was greater than 99%. The IC50 in [5] turned out to be 1290 nM.
As to `O=C(Nc1ccc(F)cn1)c1cc2n(n1)CCCC2`, the INH was greater than 10 µM at Cytochrome P450 3A4; greater than 10 µM at Cytochrome P450 2C9; greater than 10 µM on Cytochrome P450 2D6; 166 nM in data set [3]; greater than 10 µM on Cytochrome P450 1A2. The solubility kinetic in [7] came to 40 µg/mL (≈ 154 µM); in data set [8], 100 µg/mL (≈ 384 µM). This compound had a microsomal CLint in data set [1] of 31 µL/min/mg. For the same compound, the Stability entry with Plasma [2] is “Unstable”. The compound also came in with an inhibition in [4] greater than 99%. Besides, the IC50 in [5] worked out at 60 nM.
Turning to `Clc1cccc(COc2cc3n(n2)CCCC3)c1`, the IC50 in data set [6] was determined as 332 nM.

A word on the microsomal CLint: it is the capacity of the preparation to metabolise the compound, expressed as a volume cleared per time. A high value points to rapid turnover. As a reminder, the inhibition is the percentage by which the read-out fell short of the control. A high value points to strong suppression. What is called IC50 is the midpoint of a concentration-inhibition curve. Usually fraction unbound stands for free concentration divided by total concentration. The term Cmax denotes the highest concentration seen after dosing. In general, half-life refers to the time needed for the level to fall by half in the phase considered. A high value points to slow decline. Usually clearance stands for the rate of elimination divided by the concentration. A low value points to a low capacity for elimination.
